Our source for the IC50 and inhibition values is patent US20210009542A1 (Calico Life Sciences LLC, priority 2018, published 2021).

pIC50: −log10 of the molar value. Where two headings read alike, the source gives them in different places. Where only a bound is given, the exact number is not on record here.

Assay [1] addresses T1, His tagged PTPN2 (TC45) protein (Homo sapiens, UniProt P17706).
T1 construct: made in house
T1 sequence (P17706 with tags, fused parts or gaps isoform P17706-2): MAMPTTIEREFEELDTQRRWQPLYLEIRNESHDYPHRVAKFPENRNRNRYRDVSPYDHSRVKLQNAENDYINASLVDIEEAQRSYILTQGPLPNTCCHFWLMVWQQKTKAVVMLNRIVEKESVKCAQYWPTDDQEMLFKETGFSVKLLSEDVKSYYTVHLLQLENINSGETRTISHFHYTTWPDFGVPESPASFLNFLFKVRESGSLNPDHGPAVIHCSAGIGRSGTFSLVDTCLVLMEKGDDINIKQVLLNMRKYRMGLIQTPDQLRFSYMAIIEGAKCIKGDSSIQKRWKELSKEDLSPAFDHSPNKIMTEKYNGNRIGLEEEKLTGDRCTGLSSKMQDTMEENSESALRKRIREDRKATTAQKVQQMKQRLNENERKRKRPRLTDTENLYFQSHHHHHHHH
Put plainly: Mobility shift assay (MSA) for potency of PTPN2 inhibitors. As to conditions: read-out: PTPN2 MSA IC50. It is filed as biochemical. The gist of the method: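 IC50 values were derived from % inhibition of substrate conversion, measured by microfluidic mobility shift (ex 488/em 530) after quenching. The fluorescent phosphotyrosine insulin-receptor peptide ([…]) reacted for 10 min at room temperature with 0.5 nM His-tagged TC45 PTPN2 that had been preincubated 10 min with compound (12 points, 1:3). Buffer was HEPES pH 7.5 with EGTA, EDTA, Tween 20 and DTT.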

Assay [2] addresses T2, His tagged full-length PTP1B protein (Homo sapiens, UniProt P18031).
T2 construct: made in house
T2 sequence (P18031 with tags, fused parts or gaps): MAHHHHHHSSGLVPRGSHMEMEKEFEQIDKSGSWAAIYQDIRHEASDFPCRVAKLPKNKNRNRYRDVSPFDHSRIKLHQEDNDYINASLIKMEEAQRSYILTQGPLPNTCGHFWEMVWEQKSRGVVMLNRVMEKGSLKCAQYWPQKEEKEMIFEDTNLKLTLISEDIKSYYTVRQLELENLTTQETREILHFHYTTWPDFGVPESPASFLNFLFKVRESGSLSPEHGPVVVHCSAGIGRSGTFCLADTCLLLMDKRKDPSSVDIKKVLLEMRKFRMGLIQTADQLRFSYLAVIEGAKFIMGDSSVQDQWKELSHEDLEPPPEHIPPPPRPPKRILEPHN
In words: Mobility shift assay (MSA) for potency of PTP1B inhibitors. It is filed as biochemical. The protocol: The enzymatic assay used to determine activity is a mobility shift assay using a LabChip EZ Reader by Caliper Life Sciences. The enzymatic reaction was carried out in assay buffer (50 mM HEPES pH 7.5, 1 mM EGTA, 10 mM EDTA, 0.01% Tween® 20, and 2 mM DTT). […] The enzyme (at 0.5 nM) was incubated with compound for 10 minutes at room temperature. […] The % inhibition was then used to calculate the IC50 values.

Assay [3] has as its system B16F10 mouse melanoma cells. In words: B16F10 IFNγ-induced cellular growth inhibition assay. It counts as cell-based. The note with it: Mus musculus, B16-F10, 33 μM compound. A digest of the protocol:
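Live-cell imaging of confluence every 6 h over 5 days at 37 °C tracked growth of mouse B16F10 melanoma cells seeded overnight at 500/well. Semi-log compound series (final 100–0.001 μM, 0.1% DMSO) ran in both arms, ±IFNγ at 0.5 ng/mL final; inhibition taken relative to DMSO plus IFNγ when IFNγ-free DMSO wells passed 95% confluence.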

The mark [4] stands for this setting: +0.5 ng/mL IFNγ, relative to DMSO control, read-out: % B16F10 growth inhibition (+0.5 ng/mL IFNγ) @ 33 μM.
Setting [5] is: no IFNγ, read-out: % B16F10 growth inhibition (no IFNγ) @ 33 μM.

Turning to `CS(=O)(=O)N1CCC(F)(COc2ccc3cc(O)c(N4CC(=O)NS4(=O)=O)c(F)c3c2)C1` (stereo not drawn) [Compound 307, 5-(1-fluoro-7-{[3-fluoro-1-(methanesulfonyl)pyrrolidin-3-yl]methoxy}-3-hydroxynaphthalen-2-yl)-1λ^6,2,5-thiadiazolidine-1,1,3-trione], the pIC50 in assay [1] and in assay [2] was 8.00 to 9.00 each time. Besides, the results for the inhibition at 33 µM in assay [3] (setting [4]) and in assay [3] (setting [5]) were 25 to 59% and less than 25%, respectively.

As to `O=C1CN(c2c(O)cc3ccc(OCC4CCCOC4)cc3c2F)S(=O)(=O)N1` (stereo not drawn) [Compound 271, 5-{1-fluoro-3-hydroxy-7-[(oxan-3-yl)methoxy]naphthalen-2-yl}-1λ^6,2,5-thiadiazolidine-1,1,3-trione], the pIC50 in assay [1] was more than 9.00; in assay [2], less than 7.00. Also, the inhibition at 33 µM in assay [3] (setting [4]) is 60 to 90%; in assay [3] (setting [5]), less than 25%.

On to `O=C1CN(c2c(O)cc3ccc(CC4CCN(S(=O)(=O)C5CC5)C4)cc3c2F)S(=O)(=O)N1` (stereo not drawn) [Compound 261, 5-(7-{[1-(cyclopropanesulfonyl)pyrrolidin-3-yl]methyl}-1-fluoro-3-hydroxynaphthalen-2-yl)-1λ^6,2,5-thiadiazolidine-1,1,3-trione], for which the negative-log IC50 (pIC50) in assay [1] and in assay [2] was 8.00 to 9.00 in each case. In addition, the inhibition at 33 µM in assay [3] (setting [4]) is 25 to 59%; in assay [3] (setting [5]) it was less than 25%.

In the case of `O=C1CN(c2c(O)cc3ccc(OCC4(F)CCNC4)cc3c2F)S(=O)(=O)N1` (stereo not drawn) [Compound 110, 5-{1-fluoro-7-[(3-fluoropyrrolidin-3-yl)methoxy]-3-hydroxynaphthalen-2-yl}-1λ^6,2,5-thiadiazolidine-1,1,3-trione], the figures for the negative logarithm of the IC50 (pIC50) in assay [1] and in assay [2] were 8.00 to 9.00 and 7.00 to 8.00, respectively. Also, the inhibition at 33 µM was 60 to 90% in assay [3] (setting [4]) and less than 25% in assay [3] (setting [5]).

As to `O=C1CN(c2c(O)cc3ccc(NC4CCN(S(=O)(=O)C5CC5)C4)cc3c2F)S(=O)(=O)N1` (stereo not drawn) [Compound 306, 5-(7-{[1-(cyclopropanesulfonyl)pyrrolidin-3-yl]amino}-1-fluoro-3-hydroxynaphthalen-2-yl)-1λ^6,2,5-thiadiazolidine-1,1,3-trione], the pIC50 in assay [1] is 8.00 to 9.00; in assay [2] it was 7.00 to 8.00. Also, the inhibition at 33 µM in assay [3] (setting [4]) is 60 to 90%; in assay [3] (setting [5]) it was less than 25%.

`O=C1CN(c2c(O)cc3ccc(C4=CCOC4)cc3c2F)S(=O)(=O)N1` [Compound 263, 5-[7-(2,5-dihydrofuran-3-yl)-1-fluoro-3-hydroxynaphthalen-2-yl]-1λ^6,2,5-thiadiazolidine-1,1,3-trione]: the pIC50 was more than 9.00 in assay [1] and less than 7.00 in assay [2]. The values for the inhibition at 33 µM in assay [3] (setting [4]) and in assay [3] (setting [5]) were 60 to 90% and less than 25%, respectively.

In the case of `O=C1CN(c2c(O)cc3ccc(C4CCNC4)cc3c2F)S(=O)(=O)N1` (stereo not drawn) [Compound 102, 5-[1-fluoro-3-hydroxy-7-(pyrrolidin-3-yl)naphthalen-2-yl]-1λ^6,2,5-thiadiazolidine-1,1,3-trione], the values for the pIC50 in assay [1] and in assay [2] were 8.00 to 9.00 and 7.00 to 8.00, respectively. Also, the inhibition at 33 µM in assay [3] (setting [4]) was 60 to 90%; in assay [3] (setting [5]), less than 25%.

Regarding `O=C1CN(c2c(O)cc3ccc(C4CCN(S(=O)(=O)C5CC5)C4)cc3c2F)S(=O)(=O)N1` (stereo not drawn) [Compound 101, 5-{7-[1-(cyclopropanesulfonyl)pyrrolidin-3-yl]-1-fluoro-3-hydroxynaphthalen-2-yl}-1λ^6,2,5-thiadiazolidine-1,1,3-trione], the values for the negative-log IC50 (pIC50) in assay [1] and in assay [2] were more than 9.00 and 8.00 to 9.00, respectively. In addition, the inhibition at 33 µM in assay [3] (setting [4]) is 60 to 90%; in assay [3] (setting [5]), less than 25%.

Regarding `CC(O)CCOc1ccc2cc(O)c(N3CC(=O)NS3(=O)=O)c(F)c2c1` (stereo not drawn) [Compound 156, 5-[1-fluoro-3-hydroxy-7-(3-hydroxybutoxy)naphthalen-2-yl]-1λ^6,2,5-thiadiazolidine-1,1,3-trione], the negative-log IC50 (pIC50) in assay [1] is more than 9.00; in assay [2] it was 8.00 to 9.00. Besides, the results for the inhibition at 33 µM in assay [3] (setting [4]) and in assay [3] (setting [5]) were 60 to 90% and less than 25%, respectively.

For `O=C1CN(c2c(O)cc3ccc(C4CCOC4)cc3c2F)S(=O)(=O)N1` (stereo not drawn) [Compound 255, 5-[1-fluoro-3-hydroxy-7-(oxolan-3-yl)naphthalen-2-yl]-1λ^6,2,5-thiadiazolidine-1,1,3-trione], the results for the negative-log IC50 (pIC50) in assay [1] and in assay [2] were 8.00 to 9.00 and less than 7.00, respectively. Further, the inhibition at 33 µM in assay [3] (setting [4]) is 60 to 90%; in assay [3] (setting [5]), less than 25%.

Regarding `CN(C)CCNc1ccc2cc(O)c(N3CC(=O)NS3(=O)=O)c(F)c2c1` [Compound 122, 5-(7-{[2-(dimethylamino)ethyl]amino}-1-fluoro-3-hydroxynaphthalen-2-yl)-1λ^6,2,5-thiadiazolidine-1,1,3-trione], the pIC50 in assay [1] and in assay [2] was 7.00 to 8.00 in each case. Also, the inhibition at 33 µM in assay [3] (setting [4]) was 60 to 90%; in assay [3] (setting [5]), less than 25%.

For the compound `O=C1CN(c2c(O)cc3ccc(OCC4CCCO4)cc3c2F)S(=O)(=O)N1` (stereo not drawn) [Compound 254, 5-{1-fluoro-3-hydroxy-7-[(oxolan-2-yl)methoxy]naphthalen-2-yl}-1λ^6,2,5-thiadiazolidine-1,1,3-trione], the figures for the pIC50 in assay [1] and in assay [2] were 8.00 to 9.00 and less than 7.00, respectively. Also, the results for the inhibition at 33 µM in assay [3] (setting [4]) and in assay [3] (setting [5]) were 60 to 90% and less than 25%, respectively.

With `O=C1CN(c2c(O)cc3ccc(CC4CCCN(S(=O)(=O)C5CC5)C4)cc3c2F)S(=O)(=O)N1` (stereo not drawn) [Compound 259, 5-(7-{[1-(cyclopropanesulfonyl)piperidin-3-yl]methyl}-1-fluoro-3-hydroxynaphthalen-2-yl)-1λ^6,2,5-thiadiazolidine-1,1,3-trione], the pIC50 in assay [1] and in assay [2] was 8.00 to 9.00 in each case. Besides, the inhibition at 33 µM in assay [3] (setting [4]) and in assay [3] (setting [5]) was less than 25% in each case.

With `CC(C)N1CCC(F)(COc2ccc3cc(O)c(N4CC(=O)NS4(=O)=O)c(F)c3c2)C1` (stereo not drawn) [Compound 109, 5-(1-fluoro-7-{[3-fluoro-1-(propan-2-yl)pyrrolidin-3-yl]methoxy}-3-hydroxynaphthalen-2-yl)-1λ^6,2,5-thiadiazolidine-1,1,3-trione], the pIC50 in assay [1] is 8.00 to 9.00; in assay [2], 7.00 to 8.00. In addition, the inhibition at 33 µM in assay [3] (setting [4]) and in assay [3] (setting [5]) was less than 25% throughout.

Turning to `O=C1CN(c2c(O)cc3ccc(C4CCCN(S(=O)(=O)C5CC5)C4)cc3c2F)S(=O)(=O)N1` (stereo not drawn) [Compound 186, 5-{7-[1-(cyclopropanesulfonyl)piperidin-3-yl]-1-fluoro-3-hydroxynaphthalen-2-yl}-1λ^6,2,5-thiadiazolidine-1,1,3-trione], the negative-log IC50 (pIC50) in assay [1] is 8.00 to 9.00; in assay [2], 7.00 to 8.00.

Take `CC(O)COc1ccc2cc(O)c(N3CC(=O)NS3(=O)=O)c(F)c2c1` (stereo not drawn) [Compound 135, 5-[1-fluoro-3-hydroxy-7-(2-hydroxypropoxy)naphthalen-2-yl]-1λ^6,2,5-thiadiazolidine-1,1,3-trione]: the results for the pIC50 in assay [1] and in assay [2] were 8.00 to 9.00 and 7.00 to 8.00, respectively.

For `CS(=O)(=O)N1CCC(COc2ccc3cc(O)c(N4CC(=O)NS4(=O)=O)c(F)c3c2)C1` (stereo not drawn) [Compound 173, 5-(1-fluoro-3-hydroxy-7-{[1-(methanesulfonyl)pyrrolidin-3-yl]methoxy}naphthalen-2-yl)-1,2,5-thiadiazolidine-1,1,3-trione], the negative-log IC50 (pIC50) in assay [1] was more than 9.00; in assay [2], 7.00 to 8.00.

In the case of `O=C1CN(c2c(O)cc3ccc([C@H]4CCNC4)cc3c2F)S(=O)(=O)N1` (single isomer, unassigned) [Compound 233], the negative logarithm of the IC50 (pIC50) in assay [1] is 8.00 to 9.00; in assay [2], 7.00 to 8.00.

In the case of `O=C1CN(c2c(O)cc3ccc(C4CCCN4C(=O)C4CC4)cc3c2F)S(=O)(=O)N1` (stereo not drawn) [Compound 187, 5-{7-[1-(cyclopropanecarbonyl)pyrrolidin-2-yl]-1-fluoro-3-hydroxynaphthalen-2-yl}-1λ^6,2,5-thiadiazolidine-1,1,3-trione], the figures for the negative-log IC50 (pIC50) in assay [1] and in assay [2] were 8.00 to 9.00 and 7.00 to 8.00, respectively.
